Data reported in the NIST ThermoML archive (doi:10.1016/j.jct.2016.10.031).
Values joined by “and” are separate entries in the source; they are usually repeats but may differ in a detail not shown here. Identical values can stand only once.

Assay: molar heat capacity at constant pressure
Details: 101.33 kPa, Small (less than 1 g) adiabatic calorimetry

CC(C)(C)c1ccc(Oc2ccc([N+](=O)[O-])cc2)cc1 [1-(tert-butyl)-4-(4-nitrophenoxy)benzene]
Details	molar heat capacity at constant pressure
210.18 K, Glass	258.75 J/K/mol
210.65 K, Crystal	255.67 J/K/mol
211.38 K, Glass	260.08 J/K/mol
211.85 K, Crystal	257 J/K/mol
212.58 K, Glass	261.24 J/K/mol
213.05 K, Crystal	258.5 J/K/mol
213.78 K, Glass	262.57 J/K/mol
214.26 K, Crystal	259.91 J/K/mol
214.99 K, Glass	263.98 J/K/mol
215.46 K, Crystal	261.07 J/K/mol
216.19 K, Glass	265.4 J/K/mol
216.66 K, Crystal	262.4 J/K/mol
217.4 K, Glass	266.56 J/K/mol
217.87 K, Crystal	263.65 J/K/mol
218.61 K, Glass	267.89 J/K/mol
219.07 K, Crystal	265.56 J/K/mol
220 K, Crystal	266.48 J/K/mol
220.27 K, Crystal	266.4 J/K/mol
221.02 K, Glass	272.13 J/K/mol
221.47 K, Crystal	268.06 J/K/mol
222.24 K, Glass	272.71 J/K/mol
222.68 K, Crystal	269.47 J/K/mol
223.45 K, Glass	273.71 J/K/mol
223.88 K, Crystal	270.8 J/K/mol
224.67 K, Glass	275.46 J/K/mol
225.09 K, Crystal	272.13 J/K/mol
225.88 K, Glass	277.37 J/K/mol
226.29 K, Crystal	273.38 J/K/mol
227.1 K, Glass	279.45 J/K/mol
227.5 K, Crystal	274.88 J/K/mol
228.32 K, Glass	281.53 J/K/mol
228.7 K, Crystal	276.37 J/K/mol
229.54 K, Glass	283.61 J/K/mol
229.91 K, Crystal	277.7 J/K/mol
230 K, Crystal	277.79 J/K/mol
230.75 K, Glass	286.52 J/K/mol
231.12 K, Crystal	278.7 J/K/mol
231.96 K, Glass	291.09 J/K/mol
232.32 K, Crystal	280.03 J/K/mol
233.16 K, Glass	296.83 J/K/mol
233.53 K, Crystal	281.78 J/K/mol
234.33 K, Metastable liquid	313.12 J/K/mol
234.74 K, Crystal	283.36 J/K/mol
235.47 K, Metastable liquid	327.51 J/K/mol
235.95 K, Crystal	284.69 J/K/mol
236.57 K, Metastable liquid	370.08 J/K/mol
237.15 K, Crystal	286.77 J/K/mol
237.72 K, Metastable liquid	379.14 J/K/mol
238.37 K, Crystal	287.51 J/K/mol
238.92 K, Metastable liquid	380.05 J/K/mol
239.58 K, Crystal	289.09 J/K/mol
240 K, Crystal	289.26 J/K/mol
240.13 K, Metastable liquid	380.22 J/K/mol
240.79 K, Crystal	290.51 J/K/mol
241.35 K, Metastable liquid	381.3 J/K/mol
242 K, Crystal	291.5 J/K/mol
242.56 K, Metastable liquid	382.3 J/K/mol
243.21 K, Crystal	292.84 J/K/mol
243.77 K, Metastable liquid	383.46 J/K/mol
244.43 K, Crystal	294.58 J/K/mol
244.99 K, Metastable liquid	384.21 J/K/mol
245.64 K, Crystal	295.99 J/K/mol
246.85 K, Crystal	297.24 J/K/mol
248.06 K, Crystal	298.57 J/K/mol
249.28 K, Crystal	300.07 J/K/mol
250 K, Crystal	300.9 J/K/mol
250.5 K, Crystal	301.73 J/K/mol
251.71 K, Crystal	302.73 J/K/mol
252.92 K, Crystal	304.39 J/K/mol
254.14 K, Crystal	305.89 J/K/mol
255.35 K, Crystal	307.72 J/K/mol
256.57 K, Crystal	309.05 J/K/mol
257.78 K, Crystal	310.55 J/K/mol
259 K, Crystal	311.96 J/K/mol
260 K, Crystal	312.62 J/K/mol
260.22 K, Crystal	313.46 J/K/mol
261.44 K, Crystal	315.12 J/K/mol
262.65 K, Crystal	316.28 J/K/mol
263.87 K, Crystal	317.61 J/K/mol
265.09 K, Crystal	319.11 J/K/mol
266.31 K, Crystal	320.52 J/K/mol
267.53 K, Crystal	322.93 J/K/mol
268.76 K, Crystal	323.52 J/K/mol
269.98 K, Crystal	324.6 J/K/mol
270 K, Crystal	324.6 J/K/mol
271.2 K, Crystal	326.68 J/K/mol
272.42 K, Crystal	327.92 J/K/mol
273.64 K, Crystal	329.92 J/K/mol
274.86 K, Crystal	331.08 J/K/mol
276.09 K, Crystal	332.58 J/K/mol
277.31 K, Crystal	333.99 J/K/mol
278.53 K, Crystal	335.41 J/K/mol
279.76 K, Crystal	336.82 J/K/mol
280 K, Crystal	336.82 J/K/mol
280.98 K, Crystal	337.98 J/K/mol
282.21 K, Crystal	338.98 J/K/mol
283.43 K, Crystal	341.06 J/K/mol
284.66 K, Crystal	342.56 J/K/mol
285.89 K, Crystal	344.14 J/K/mol
287.11 K, Crystal	345.22 J/K/mol
288.31 K, Crystal	347.05 J/K/mol
289.54 K, Crystal	348.38 J/K/mol
290 K, Crystal	349.21 J/K/mol
290.77 K, Crystal	349.96 J/K/mol
291.99 K, Crystal	351.2 J/K/mol
293.22 K, Crystal	353.2 J/K/mol
294.45 K, Crystal	354.45 J/K/mol
295.68 K, Crystal	355.94 J/K/mol
296.91 K, Crystal	357.69 J/K/mol
298.15 K, Crystal	359.02 J/K/mol and 359.52 J/K/mol
299.38 K, Crystal	360.35 J/K/mol
300 K, Crystal	361.85 J/K/mol
300.82 K, Crystal	363.01 J/K/mol
302.44 K, Crystal	364.84 J/K/mol
304.06 K, Crystal	367.75 J/K/mol
305.69 K, Crystal	370.08 J/K/mol
307.33 K, Crystal	372.49 J/K/mol
308.97 K, Crystal	374.65 J/K/mol
310 K, Crystal	376.4 J/K/mol
310.62 K, Crystal	377.23 J/K/mol
312.28 K, Crystal	379.97 J/K/mol
313.94 K, Crystal	385.62 J/K/mol
315.6 K, Crystal	386.71 J/K/mol
317.26 K, Crystal	392.78 J/K/mol
318.94 K, Crystal	397.18 J/K/mol
320 K, Crystal	390.45 J/K/mol
320.63 K, Crystal	403.09 J/K/mol
322.32 K, Crystal	412.15 J/K/mol
324.01 K, Crystal	420.79 J/K/mol
325.71 K, Crystal	441.66 J/K/mol
327.44 K, Crystal	477.92 J/K/mol
330 K, Crystal	404.5 J/K/mol
334.8 K, Crystal	411.23 J/K/mol
334.8 K, Liquid	446.57 J/K/mol
340 K, Liquid	449.23 J/K/mol
340.68 K, Liquid	450.39 J/K/mol
344.79 K, Liquid	449.98 J/K/mol
346.59 K, Liquid	452.64 J/K/mol
348.4 K, Liquid	452.39 J/K/mol
350 K, Liquid	454.39 J/K/mol
350.22 K, Liquid	454.88 J/K/mol
352.05 K, Liquid	456.21 J/K/mol
353.89 K, Liquid	457.05 J/K/mol
355.75 K, Liquid	456.96 J/K/mol
357.6 K, Liquid	459.21 J/K/mol
359.66 K, Liquid	460.7 J/K/mol
360 K, Liquid	459.54 J/K/mol
361.55 K, Liquid	460.21 J/K/mol
363.45 K, Liquid	461.62 J/K/mol
365.36 K, Liquid	462.28 J/K/mol
367.28 K, Liquid	462.87 J/K/mol
369.21 K, Liquid	463.95 J/K/mol
370 K, Liquid	464.7 J/K/mol
371.16 K, Liquid	464.86 J/K/mol
